± gives the uncertainty stated by the source.
Assay: xn = mol fraction of the nth substance listed

CCCCCCCCCCCCCC[P+](CCCCCC)(CCCCCC)CCCCCC.c1c[n-]nn1 + COCCOCCOCCOCCOC
viscosity [mPa·s], 100 kPa
Settings	293.15 K	298.15 K	303.15 K	308.15 K	313.15 K	318.15 K	323.15 K
x1 = 0.499	80 ± 1	65 ± 1	53 ± 1	–	–	–	–
x1 = 0.602	118 ± 3	93 ± 2	74 ± 1	62 ± 1	51 ± 1	–	–
x1 = 0.69	172 ± 5	134 ± 3	106 ± 2	85 ± 1	69 ± 1	57 ± 1	–
x1 = 0.793	250 ± 9	190 ± 6	147 ± 4	116 ± 2	93 ± 2	76 ± 1	63 ± 1
x1 = 0.878	358 ± 15	266 ± 10	201 ± 6	156 ± 4	123 ± 3	99 ± 2	81 ± 1
x1 = 0.917	400 ± 18	294 ± 11	221 ± 7	170 ± 5	133 ± 3	106 ± 2	86 ± 1

CC(=O)CCC(=O)O + C[N+](C)(C)CCO.[Cl-]
viscosity [mPa·s]
Settings	293.15 K	298.15 K	303.15 K	308.15 K	313.15 K	318.15 K	323.15 K
100 kPa, x2 = 0.33	320.6 ± 15	226.8 ± 10	164.5 ± 7.1	122.5 ± 5.2	93.62 ± 3.9	72.54 ± 3	57.48 ± 2.3
101 kPa, x1 = 0.75	134.2 ± 5.9	–	79.14 ± 3.4	–	47.76 ± 2	–	31.29 ± 1.3
101 kPa, x2 = 0.25	–	132.9 ± 5.8	–	–	–	46.9 ± 2	–
101 kPa, x2 = 0.333	–	207.8 ± 9.4	–	–	–	68 ± 3	–

CCC(=O)O + C[N+](C)(C)CCO.[Cl-]
101 kPa, x2 = 0.333
Settings	viscosity [mPa·s]
293.15 K	70.98 ± 1.5
298.15 K	55.91 ± 1.2
303.15 K	44.79 ± 0.94
308.15 K	36.45 ± 0.76
313.15 K	30.06 ± 0.63
318.15 K	25.09 ± 0.52
323.15 K	21.19 ± 0.44

CC12CCC(CC1)C(C)(C)O2 + Cc1ccc(O)cc1
viscosity [mPa·s], 101 kPa
Settings	x1 = 0.065	x1 = 0.1353	x1 = 0.2115	x1 = 0.2943	x1 = 0.3849	x1 = 0.4841	x1 = 0.5935	x1 = 0.7145	x1 = 0.8492
303.15 K	10.05 ± 0.26	10.4 ± 0.26	10.3 ± 0.26	9.855 ± 0.25	8.969 ± 0.23	7.588 ± 0.2	6 ± 0.17	4.552 ± 0.13	3.36 ± 0.099
308.15 K	8.061 ± 0.21	8.368 ± 0.22	8.359 ± 0.22	8.056 ± 0.21	7.332 ± 0.2	6.325 ± 0.17	5.03 ± 0.14	3.799 ± 0.11	2.854 ± 0.085
313.15 K	6.612 ± 0.18	6.841 ± 0.19	6.808 ± 0.19	6.617 ± 0.18	6.12 ± 0.17	5.364 ± 0.15	4.313 ± 0.12	3.244 ± 0.095	2.467 ± 0.074

CC12CCC(CC1)C(C)(C)O2 + Cc1cccc(O)c1
viscosity [mPa·s], 101 kPa
Settings	x1 = 0.065	x1 = 0.1352	x1 = 0.2114	x1 = 0.2943	x1 = 0.3848	x1 = 0.4841	x1 = 0.5934	x1 = 0.7145	x1 = 0.8492
303.15 K	10.48 ± 0.27	10.69 ± 0.27	10.47 ± 0.26	9.802 ± 0.25	8.746 ± 0.23	7.564 ± 0.2	6.28 ± 0.17	4.91 ± 0.14	3.559 ± 0.1
308.15 K	8.331 ± 0.22	8.539 ± 0.23	8.426 ± 0.22	7.994 ± 0.21	7.155 ± 0.19	6.222 ± 0.17	5.16 ± 0.15	4.043 ± 0.12	3.002 ± 0.089
313.15 K	6.756 ± 0.19	6.947 ± 0.19	6.878 ± 0.19	6.474 ± 0.18	5.892 ± 0.17	5.161 ± 0.15	4.295 ± 0.13	3.348 ± 0.1	2.505 ± 0.076

CCC(=O)O + Cc1ccccc1
viscosity [mPa·s], 101.33 kPa
Settings	293.15 K	303.15 K	308.15 K	313.15 K	323.15 K
x1 = 0.1231	–	–	0.5358 ± 0.007	–	–
x1 = 0.2366	–	–	0.5532 ± 0.007	–	–
x1 = 0.3487	–	–	0.5721 ± 0.007	–	–
x1 = 0.4523	–	–	0.597 ± 0.007	–	–
x1 = 0.5546	–	–	0.6271 ± 0.0072	–	–
x1 = 0.6523	–	–	0.6628 ± 0.0073	–	–
x1 = 0.7435	–	–	0.702 ± 0.0075	–	–
x1 = 0.832	–	–	0.7411 ± 0.0077	–	–
x1 = 0.9187	–	–	0.8128 ± 0.0082	–	–
x2 = 0.0286	1.06 ± 0.052	0.9144 ± 0.046	–	0.8218 ± 0.042	0.7431 ± 0.038
x2 = 0.072	1.009 ± 0.05	0.8713 ± 0.044	–	0.7818 ± 0.04	0.6965 ± 0.036
x2 = 0.1175	0.967 ± 0.048	0.8298 ± 0.042	–	0.751 ± 0.039	0.672 ± 0.035
x2 = 0.1497	0.9304 ± 0.047	0.7997 ± 0.041	–	0.7176 ± 0.037	0.6478 ± 0.034
x2 = 0.2309	0.8623 ± 0.044	0.7424 ± 0.038	–	0.6663 ± 0.035	0.5978 ± 0.032
x2 = 0.3182	0.806 ± 0.041	0.6911 ± 0.036	–	0.6194 ± 0.033	0.5682 ± 0.031
x2 = 0.4118	0.7554 ± 0.039	0.6539 ± 0.035	–	0.5909 ± 0.032	0.5342 ± 0.029
x2 = 0.5137	0.7079 ± 0.037	0.6205 ± 0.033	–	0.5536 ± 0.03	0.5047 ± 0.028
x2 = 0.555	0.6938 ± 0.036	0.6095 ± 0.033	–	0.5469 ± 0.03	0.4952 ± 0.028
x2 = 0.6209	0.6768 ± 0.036	0.5898 ± 0.032	–	0.5292 ± 0.029	0.4824 ± 0.027
x2 = 0.6913	0.6606 ± 0.035	0.5743 ± 0.031	–	0.5131 ± 0.029	0.4666 ± 0.026
x2 = 0.7372	0.6419 ± 0.034	0.5603 ± 0.031	–	0.5035 ± 0.028	0.4574 ± 0.026
x2 = 0.787	0.6276 ± 0.034	0.5507 ± 0.03	–	0.494 ± 0.028	0.4506 ± 0.026
x2 = 0.8644	0.6088 ± 0.033	0.5364 ± 0.029	–	0.4799 ± 0.027	0.4372 ± 0.025
x2 = 0.9714	0.5928 ± 0.032	0.5259 ± 0.029	–	0.4684 ± 0.027	0.4295 ± 0.025

Reference: the CheMixHub viscosity set
